Details: Liquid; for speed of sound: Pulse-echo method; for mass density: Vibrating tube method

CCCCCCCCCCCCCC(=O)OC [methyl tetradecanoate]
Details	mass density [kg/m3]	speed of sound [m/s]
303.15 K, 100 kPa	–	1335.8
303.15 K, 101.3 kPa	859.7	–
303.15 K, 10000 kPa	866.3	1382.9
303.15 K, 20000 kPa	872.4	1426.9
303.15 K, 30000 kPa	878.2	1468.1
303.15 K, 40000 kPa	883.7	1507.6
303.15 K, 50000 kPa	888.9	1544.9
303.15 K, 60000 kPa	893.8	1580.2
303.15 K, 70000 kPa	898.5	1614.2
313.15 K, 101.3 kPa	851.6	–
313.15 K, 10000 kPa	858.2	–
313.15 K, 20000 kPa	864.7	–
313.15 K, 30000 kPa	870.7	–
313.15 K, 40000 kPa	876.4	–
313.15 K, 50000 kPa	881.7	–
313.15 K, 60000 kPa	886.8	–
313.15 K, 70000 kPa	891.7	–
313.15 K, 80000 kPa	896.3	–
323.15 K, 100 kPa	–	1264
323.15 K, 101.3 kPa	843.3	–
323.15 K, 10000 kPa	850.5	1316.4
323.15 K, 20000 kPa	857.2	1364.8
323.15 K, 30000 kPa	863.5	1409.6
323.15 K, 40000 kPa	869.4	1451.9
323.15 K, 50000 kPa	874.9	1492.5
323.15 K, 60000 kPa	880.2	1530.5
323.15 K, 70000 kPa	885.2	1566.8
323.15 K, 80000 kPa	889.9	1601.2
333.15 K, 101.3 kPa	835.2	–
333.15 K, 10000 kPa	843	–
333.15 K, 20000 kPa	850.1	–
333.15 K, 30000 kPa	856.6	–
333.15 K, 40000 kPa	862.7	–
333.15 K, 50000 kPa	868.4	–
333.15 K, 60000 kPa	873.8	–
333.15 K, 70000 kPa	879	–
333.15 K, 80000 kPa	883.9	–
343.15 K, 100 kPa	–	1195.7
343.15 K, 101.3 kPa	827.9	–
343.15 K, 10000 kPa	835.7	1251.2
343.15 K, 20000 kPa	843.1	1302.9
343.15 K, 30000 kPa	849.8	1350.8
343.15 K, 40000 kPa	856.2	1396
343.15 K, 50000 kPa	862.1	1437.4
343.15 K, 60000 kPa	867.7	1477.5
343.15 K, 70000 kPa	873	1515
343.15 K, 80000 kPa	878	1550.8
353.15 K, 101.3 kPa	820.2	–
353.15 K, 10000 kPa	828.5	–
353.15 K, 20000 kPa	836.1	–
353.15 K, 30000 kPa	843.2	–
353.15 K, 40000 kPa	849.8	–
353.15 K, 50000 kPa	855.9	–
353.15 K, 60000 kPa	861.6	–
353.15 K, 70000 kPa	867.1	–
353.15 K, 80000 kPa	872.3	–
363.15 K, 100 kPa	–	1130.9
363.15 K, 101.3 kPa	812.6	–
363.15 K, 10000 kPa	821.2	1190.4
363.15 K, 20000 kPa	829.2	1245.2
363.15 K, 30000 kPa	836.6	1295.9
363.15 K, 40000 kPa	843.4	1342.5
363.15 K, 50000 kPa	849.7	1385.7
363.15 K, 60000 kPa	855.6	1426.7
363.15 K, 70000 kPa	861.2	1465.5
363.15 K, 80000 kPa	866.6	1502.6
373.15 K, 101.3 kPa	804.6	–
373.15 K, 10000 kPa	813.9	–
373.15 K, 20000 kPa	822.2	–
373.15 K, 30000 kPa	829.9	–
373.15 K, 40000 kPa	836.9	–
373.15 K, 50000 kPa	843.5	–
373.15 K, 60000 kPa	849.6	–
373.15 K, 70000 kPa	855.3	–
373.15 K, 80000 kPa	860.8	–
383.15 K, 100 kPa	–	1066.7
383.15 K, 101.3 kPa	796.4	–
383.15 K, 10000 kPa	806.3	1131.3
383.15 K, 20000 kPa	815.1	1189.6
383.15 K, 30000 kPa	823	1242.9
383.15 K, 40000 kPa	830.3	1291.7
383.15 K, 50000 kPa	837.1	1338
383.15 K, 60000 kPa	843.4	1380.3
383.15 K, 70000 kPa	849.3	1420.4
383.15 K, 80000 kPa	854.9	1457.6
393.15 K, 100 kPa	–	1036.2
393.15 K, 101.3 kPa	788.5	–
393.15 K, 10000 kPa	798.6	1103.6
393.15 K, 20000 kPa	807.7	1163.5
393.15 K, 30000 kPa	815.9	1217.8
393.15 K, 40000 kPa	823.5	1267.7
393.15 K, 50000 kPa	830.5	1314.4
393.15 K, 60000 kPa	837	1357.8
393.15 K, 70000 kPa	843.1	1397.8
393.15 K, 80000 kPa	848.8	1436.8

CCCCCCCCCCCCCCCC(=O)OC [methyl hexadecanoate]
Details	mass density [kg/m3]	speed of sound [m/s]
313.15 K, 100 kPa	–	1317.2
313.15 K, 101.3 kPa	849.9	–
313.15 K, 10000 kPa	856.3	1365.4
313.15 K, 20000 kPa	861.8	1411.5
313.15 K, 30000 kPa	867.9	1454.4
313.15 K, 40000 kPa	872.1	1494.8
313.15 K, 50000 kPa	878.4	–
323.15 K, 100 kPa	–	1283.4
323.15 K, 101.3 kPa	842.5	–
323.15 K, 10000 kPa	849	1333.7
323.15 K, 20000 kPa	855.5	1381.1
323.15 K, 30000 kPa	861.4	1425.2
323.15 K, 40000 kPa	866.8	1467.4
323.15 K, 50000 kPa	871.8	1506.9
333.15 K, 101.3 kPa	835.2	–
333.15 K, 10000 kPa	842	–
333.15 K, 20000 kPa	848.7	–
333.15 K, 30000 kPa	854.9	–
333.15 K, 40000 kPa	860.4	–
333.15 K, 50000 kPa	866.7	–
343.15 K, 100 kPa	–	1215.3
343.15 K, 101.3 kPa	827.8	–
343.15 K, 10000 kPa	835.1	1270.1
343.15 K, 20000 kPa	842	1319.7
343.15 K, 30000 kPa	848.5	1366.8
343.15 K, 40000 kPa	854.4	1410.5
343.15 K, 50000 kPa	859.6	1450.6
353.15 K, 101.3 kPa	820.4	–
353.15 K, 10000 kPa	827.7	–
353.15 K, 20000 kPa	835.1	–
353.15 K, 30000 kPa	841.7	–
353.15 K, 40000 kPa	847.9	–
353.15 K, 50000 kPa	853.8	–
363.15 K, 100 kPa	–	1150.1
363.15 K, 101.3 kPa	812.8	–
363.15 K, 10000 kPa	820.3	1208.9
363.15 K, 20000 kPa	828	1262.5
363.15 K, 30000 kPa	835	1311.1
363.15 K, 40000 kPa	843.8	1355.7
363.15 K, 50000 kPa	848.6	1400.9
373.15 K, 101.3 kPa	804.6	–
373.15 K, 10000 kPa	813.8	–
373.15 K, 20000 kPa	821.7	–
373.15 K, 30000 kPa	829	–
373.15 K, 40000 kPa	835.7	–
373.15 K, 50000 kPa	841.9	–
383.15 K, 100 kPa	–	1087.2
383.15 K, 101.3 kPa	797.4	–
383.15 K, 10000 kPa	806.8	1150.3
383.15 K, 20000 kPa	815.1	1207.5
383.15 K, 30000 kPa	822.7	1259.3
383.15 K, 40000 kPa	829.6	1310.8
383.15 K, 50000 kPa	836.5	1358.3
393.15 K, 100 kPa	–	1056.9
393.15 K, 10000 kPa	–	1121.2
393.15 K, 20000 kPa	–	1180.4
393.15 K, 30000 kPa	–	1234.2
393.15 K, 40000 kPa	–	1284.7
393.15 K, 50000 kPa	–	1334
